{
  "source": "ChEMBL document CHEMBL1151469",
  "about": "“Cytotoxic activity of N-chlorotaurine on Acanthamoeba spp” (Antimicrob Agents Chemother, 2008)",
  "key": {"Acanthamoeba polyphaga [1]": {"system": "Acanthamoeba polyphaga", "assay": "Amoebicidal activity against Trophozoites of Acanthamoeba polyphaga 5SU in peptone yeast extract glucose medium at pH 7 after 1 hr by hemocytometer using trypan blue stain", "assay_type": "functional, organism-based"}, "Acanthamoeba polyphaga [2]": {"system": "Acanthamoeba polyphaga", "assay": "Amoebicidal activity against Trophozoites of Acanthamoeba polyphaga 5SU assessed as log reduction in cell count at 20 mM in peptone yeast extract glucose medium at pH 7 after 24 hrs by hemocytometer using trypan blue stain", "assay_type": "functional"}, "Acanthamoeba castellanii [3]": {"system": "Acanthamoeba castellanii", "assay": "Amoebicidal activity against excysted trophozoites of Acanthamoeba castellanii 4CL at 55 mM in peptone yeast extract glucose medium after 6 days by hemocytometer using trypan blue stain", "assay_type": "functional"}, "Acanthamoeba hatchetti [4]": {"system": "Acanthamoeba hatchetti", "assay": "Amoebicidal activity against excysted trophozoites of Acanthamoeba hatchetti 11DS at 55 mM in peptone yeast extract glucose medium after 4 days by hemocytometer using trypan blue stain", "assay_type": "functional"}, "Acanthamoeba polyphaga [5]": {"system": "Acanthamoeba polyphaga", "assay": "Amoebicidal activity against Trophozoites of Acanthamoeba polyphaga 5SU assessed as killing time at 55 mM in peptone yeast extract glucose medium at pH 7 by hemocytometer using trypan blue stain", "assay_type": "functional"}, "Acanthamoeba hatchetti [6]": {"system": "Acanthamoeba hatchetti", "assay": "Amoebicidal activity against Trophozoites of Acanthamoeba hatchetti 11DS in phosphate buffered saline at pH 7 after 24 hrs by hemocytometer using trypan blue stain", "assay_type": "functional, organism-based"}, "Acanthamoeba hatchetti [7]": {"system": "Acanthamoeba hatchetti", "assay": "Amoebicidal activity against excysted trophozoites of Acanthamoeba hatchetti 11DS at 55 mM in peptone yeast extract glucose medium after 6 days by hemocytometer using trypan blue stain", "assay_type": "functional"}, "Acanthamoeba polyphaga [8]": {"system": "Acanthamoeba polyphaga", "assay": "Amoebicidal activity against Trophozoites of Acanthamoeba polyphaga 5SU in phosphate buffered saline at pH 7 after 1 hr by hemocytometer using trypan blue stain in presence of 34 mM ammonium chloride", "assay_type": "functional, organism-based"}, "Acanthamoeba hatchetti [9]": {"system": "Acanthamoeba hatchetti", "assay": "Amoebicidal activity against Trophozoites of Acanthamoeba hatchetti 11DS assessed as complete killing time at 55 mM in phosphate buffered saline at pH 7 after 3 hrs by hemocytometer using trypan blue stain in presence of 190 mM ammonium chloride", "assay_type": "functional, organism-based"}, "Acanthamoeba hatchetti [10]": {"system": "Acanthamoeba hatchetti", "assay": "Amoebicidal activity against Trophozoites of Acanthamoeba hatchetti 11DS assessed as log reduction in cell count at 10 mM in phosphate buffered saline at pH 5 after 24 hrs by hemocytometer using trypan blue stain", "assay_type": "functional, organism-based"}, "Acanthamoeba polyphaga [11]": {"system": "Acanthamoeba polyphaga", "assay": "Amoebicidal activity against Trophozoites of Acanthamoeba polyphaga 5SU assessed as prevention of sporadic cysts formation at 55 mM in phosphate buffered saline at pH 7 by hemocytometer using trypan blue stain", "assay_type": "functional, organism-based"}, "Acanthamoeba polyphaga [12]": {"system": "Acanthamoeba polyphaga", "assay": "Amoebicidal activity against Trophozoites of Acanthamoeba polyphaga 5SU assessed as reduction killing time at 55 mM in phosphate buffered saline at pH 7 by hemocytometer using trypan blue stain", "assay_type": "functional, organism-based"}, "Acanthamoeba polyphaga [13]": {"system": "Acanthamoeba polyphaga", "assay": "Amoebicidal activity against Trophozoites of Acanthamoeba polyphaga 5SU assessed as reduction killing time at 55 mM in phosphate buffered saline at pH 7 by hemocytometer using trypan blue stain in presence of 190 mM ammonium chloride", "assay_type": "functional, organism-based"}, "Acanthamoeba hatchetti [14]": {"system": "Acanthamoeba hatchetti", "assay": "Amoebicidal activity against excysted trophozoites of Acanthamoeba hatchetti 11DS at 55 mM in peptone yeast extract glucose medium after 24 hrs by hemocytometer using trypan blue stain", "assay_type": "functional"}, "Acanthamoeba hatchetti [15]": {"system": "Acanthamoeba hatchetti", "assay": "Amoebicidal activity against Trophozoites of Acanthamoeba hatchetti 11DS in phosphate buffered saline at pH 7 after 1 hr by hemocytometer using trypan blue stain in presence of 34 mM ammonium chloride", "assay_type": "functional, organism-based"}, "Acanthamoeba polyphaga [16]": {"system": "Acanthamoeba polyphaga", "assay": "Amoebicidal activity against Trophozoites of Acanthamoeba polyphaga 5SU in phosphate buffered saline at pH 7 after 6 hrs by hemocytometer using trypan blue stain in presence of 34 mM ammonium chloride", "assay_type": "functional, organism-based"}, "Acanthamoeba hatchetti [17]": {"system": "Acanthamoeba hatchetti", "assay": "Amoebicidal activity against Trophozoites of Acanthamoeba hatchetti 11DS in peptone yeast extract glucose medium at pH 7 after 6 hrs by hemocytometer using trypan blue stain", "assay_type": "functional, organism-based"}, "Acanthamoeba hatchetti [18]": {"system": "Acanthamoeba hatchetti", "assay": "Amoebicidal activity against Trophozoites of Acanthamoeba hatchetti 11DS assessed as log reduction in cell count at 10 mM in phosphate buffered saline at pH 5 after 24 hrs by hemocytometer using trypan blue staining in presence of 160 mM mM beta-alanine", "assay_type": "functional, organism-based"}, "Acanthamoeba hatchetti [19]": {"system": "Acanthamoeba hatchetti", "assay": "Amoebicidal activity against Trophozoites of Acanthamoeba hatchetti 11DS in peptone yeast extract glucose medium at pH 7 after 6 hrs by hemocytometer using trypan blue stain in presence of 68 mM ammonium chloride", "assay_type": "functional, organism-based"}, "Acanthamoeba polyphaga [20]": {"system": "Acanthamoeba polyphaga", "assay": "Amoebicidal activity against Trophozoites of Acanthamoeba polyphaga 5SU assessed as complete killing time at 55 mM in phosphate buffered saline at pH 7 after 6 hrs by hemocytometer using trypan blue stain in presence of 190 mM ammonium chloride", "assay_type": "functional, organism-based"}, "Acanthamoeba hatchetti [21]": {"system": "Acanthamoeba hatchetti", "assay": "Amoebicidal activity against Trophozoites of Acanthamoeba hatchetti 11DS assessed as log reduction in cell count at 10 mM in phosphate buffered saline at pH 5 within 1 hr by hemocytometer using trypan blue stain in presence of 290 mM ammonium chloride", "assay_type": "functional"}, "Acanthamoeba hatchetti [22]": {"system": "Acanthamoeba hatchetti", "assay": "Amoebicidal activity against Trophozoites of Acanthamoeba hatchetti 11DS in phosphate buffered saline at pH 7 after 24 hrs by hemocytometer using trypan blue stain in presence of 34 mM ammonium chloride", "assay_type": "functional, organism-based"}, "Acanthamoeba polyphaga [23]": {"system": "Acanthamoeba polyphaga", "assay": "Amoebicidal activity against Trophozoites of Acanthamoeba polyphaga 5SU assessed as log reduction in cell count at 10 mM in phosphate buffered saline at pH 7 after 6 hrs by hemocytometer using trypan blue stain", "assay_type": "functional"}, "Acanthamoeba hatchetti [24]": {"system": "Acanthamoeba hatchetti", "assay": "Amoebicidal activity against Trophozoites of Acanthamoeba hatchetti 11DS assessed as killing time at 10 mM in phosphate buffered saline at pH 7 by hemocytometer using trypan blue stain", "assay_type": "functional"}, "Acanthamoeba castellanii [25]": {"system": "Acanthamoeba castellanii", "assay": "Amoebicidal activity against excysted trophozoites of Acanthamoeba castellanii 4CL at 55 mM in peptone yeast extract glucose medium after 24 hrs by hemocytometer using trypan blue stain", "assay_type": "functional"}, "Acanthamoeba polyphaga [26]": {"system": "Acanthamoeba polyphaga", "assay": "Amoebicidal activity against Trophozoites of Acanthamoeba polyphaga 5SU in peptone yeast extract glucose medium at pH 7 after 6 hrs by hemocytometer using trypan blue stain in presence of 68 mM ammonium chloride", "assay_type": "functional, organism-based"}, "Acanthamoeba polyphaga [27]": {"system": "Acanthamoeba polyphaga", "assay": "Amoebicidal activity against Trophozoites of Acanthamoeba polyphaga 5SU assessed as reduction in killing time at 10 mM in phosphate buffered saline at pH 5 by hemocytometer using trypan blue stain in presence of 160 mM beta-alanine", "assay_type": "functional, organism-based"}, "Acanthamoeba polyphaga [28]": {"system": "Acanthamoeba polyphaga", "assay": "Amoebicidal activity against Trophozoites of Acanthamoeba polyphaga 5SU assessed as killing time at 55 mM in phosphate buffered saline at pH 7 by hemocytometer using trypan blue stain", "assay_type": "functional"}, "Acanthamoeba polyphaga [29]": {"system": "Acanthamoeba polyphaga", "assay": "Amoebicidal activity against Trophozoites of Acanthamoeba polyphaga 5SU in phosphate buffered saline at pH 7 after 1 hr by hemocytometer using trypan blue stain", "assay_type": "functional, organism-based"}, "Acanthamoeba polyphaga [30]": {"system": "Acanthamoeba polyphaga", "assay": "Amoebicidal activity against Trophozoites of Acanthamoeba polyphaga 5SU assessed as rounding of cells at 55 mM in phosphate buffered saline at pH 7 after 15 mins by hemocytometer using trypan blue stain in presence of 190 mM ammonium chloride", "assay_type": "functional, organism-based"}, "Acanthamoeba hatchetti [31]": {"system": "Acanthamoeba hatchetti", "assay": "Amoebicidal activity against Trophozoites of Acanthamoeba hatchetti 11DS assessed as killing time at 20 mM in peptone yeast extract glucose medium at pH 7 by hemocytometer using trypan blue stain", "assay_type": "functional"}, "Acanthamoeba polyphaga [32]": {"system": "Acanthamoeba polyphaga", "assay": "Amoebicidal activity against Trophozoites of Acanthamoeba polyphaga 5SU assessed as killing time at 10 mM in phosphate buffered saline at pH 7 by hemocytometer using trypan blue stain", "assay_type": "functional"}, "Acanthamoeba castellanii [33]": {"system": "Acanthamoeba castellanii", "assay": "Amoebicidal activity against Trophozoites of Acanthamoeba castellanii 40AB assessed as killing time at 10 mM in phosphate buffered saline at pH 7 by hemocytometer using trypan blue stain", "assay_type": "functional"}, "Acanthamoeba castellanii [34]": {"system": "Acanthamoeba castellanii", "assay": "Amoebicidal activity against Trophozoites of Acanthamoeba castellanii 40AB assessed as killing time at 20 mM in peptone yeast extract glucose medium at pH 7 by hemocytometer using trypan blue stain", "assay_type": "functional"}},
  "note": "The source made the active and inactive calls. The rule behind the calls is not given here.",
  "data": [
    {"smiles": "O=S(=O)(O)CCNCl", "values": [
      {"measurement": "EC50", "setting": "Acanthamoeba polyphaga [1]", "result": 23.1, "unit": "mM"},
      {"measurement": "Activity", "setting": "Acanthamoeba polyphaga [2]", "result": 2},
      {"measurement": "Activity", "setting": "Acanthamoeba castellanii [3]", "result": 7200},
      {"measurement": "Activity", "setting": "Acanthamoeba hatchetti [4]", "result": 100000},
      {"measurement": "Activity", "setting": "Acanthamoeba polyphaga [5]", "result": 3, "unit": "h"},
      {"measurement": "EC50", "setting": "Acanthamoeba hatchetti [6]", "result": 3.65, "unit": "mM"},
      {"measurement": "EC90", "setting": "Acanthamoeba hatchetti [6]", "result": 7.56, "unit": "mM"},
      {"measurement": "Activity", "setting": "Acanthamoeba hatchetti [7]", "result": 210000},
      {"measurement": "EC50", "setting": "Acanthamoeba polyphaga [8]", "result": 5.31, "unit": "mM"},
      {"measurement": "EC90", "setting": "Acanthamoeba polyphaga [8]", "result": 9.5, "unit": "mM"},
      {"measurement": "Activity", "setting": "Acanthamoeba hatchetti [9]", "result": "Active"},
      {"measurement": "Activity", "setting": "Acanthamoeba hatchetti [10]", "result": "Active"},
      {"measurement": "Activity", "setting": "Acanthamoeba polyphaga [11]", "result": "inactive"},
      {"measurement": "Activity", "setting": "Acanthamoeba polyphaga [12]", "result": "Active"},
      {"measurement": "Activity", "setting": "Acanthamoeba polyphaga [13]", "result": "inactive"},
      {"measurement": "Activity", "setting": "Acanthamoeba hatchetti [14]", "result": 4600},
      {"measurement": "EC50", "setting": "Acanthamoeba hatchetti [15]", "result": 12.9, "unit": "mM"},
      {"measurement": "EC50", "setting": "Acanthamoeba polyphaga [16]", "result": 5, "unit": "mM"},
      {"measurement": "EC90", "setting": "Acanthamoeba polyphaga [16]", "result": 9.08, "unit": "mM"},
      {"measurement": "EC50", "setting": "Acanthamoeba hatchetti [17]", "result": 9.15, "unit": "mM"},
      {"measurement": "Activity", "setting": "Acanthamoeba hatchetti [18]", "result": "Active"},
      {"measurement": "EC50", "setting": "Acanthamoeba hatchetti [19]", "result": 10.4, "unit": "mM"},
      {"measurement": "Activity", "setting": "Acanthamoeba polyphaga [20]", "result": "Active"},
      {"measurement": "Activity", "setting": "Acanthamoeba hatchetti [21]", "result": 2},
      {"measurement": "EC50", "setting": "Acanthamoeba hatchetti [22]", "result": 5.11, "unit": "mM"},
      {"measurement": "EC90", "setting": "Acanthamoeba hatchetti [22]", "result": 9.13, "unit": "mM"},
      {"measurement": "Activity", "setting": "Acanthamoeba polyphaga [23]", "result": 2},
      {"measurement": "Activity", "setting": "Acanthamoeba hatchetti [24]", "result": 30, "unit": "h"},
      {"measurement": "Activity", "setting": "Acanthamoeba castellanii [25]", "result": 0},
      {"measurement": "EC50", "setting": "Acanthamoeba polyphaga [26]", "result": 12.9, "unit": "mM"},
      {"measurement": "Activity", "setting": "Acanthamoeba polyphaga [27]", "result": "inactive"},
      {"measurement": "Activity", "setting": "Acanthamoeba polyphaga [28]", "result": 1, "unit": "h"},
      {"measurement": "EC50", "setting": "Acanthamoeba polyphaga [29]", "result": 29.3, "unit": "mM"},
      {"measurement": "Activity", "setting": "Acanthamoeba polyphaga [30]", "result": "Active"},
      {"measurement": "Activity", "setting": "Acanthamoeba hatchetti [31]", "result": 36, "unit": "h"},
      {"measurement": "Activity", "setting": "Acanthamoeba polyphaga [32]", "result": 15, "unit": "h"},
      {"measurement": "Activity", "setting": "Acanthamoeba castellanii [33]", "result": 30, "unit": "h"},
      {"measurement": "Activity", "setting": "Acanthamoeba castellanii [34]", "result": 36, "unit": "h"}
    ]}
  ]
}
